Patent US10577381B2, “Prodrugs of 2,4-pyrimidinediamine compounds and their uses” (Rigel Pharmaceuticals, Inc., priority 2005, dated 2020)
≈ marks a conversion by molar mass, not a printed value. Entries after “also recorded” stand apart in the source; their conditions may differ. Like-named read-outs stand apart in the source and are kept apart here. Each block holds one molecule with its values, some of them ahead of it.

What was measured:
[1] = Water solubility in aqueous buffer; format: physicochemical
[2] = tested on: Cord-Blood Derived Primary Human Mast Cells (CHMC); test: FcεRI-dependent activation of CHMC, tryptase released upon degranulation; format: cell-based; conditions: Mast cell, activity of tryptase released upon degranulation
CHMCs = test: Ionomycin-induced degranulation of CHMCs; format: cell-based, Human
LTC4 = test: FcεRI-dependent production and release of LTC4; format: cell-based; conditions: Homo sapiens
cytokines = test: FcεRI-dependent production and release of cytokines; format: cell-based; conditions: Homo sapiens; range over cytokines; read-out: EC50, FcεRI-dependent production and release of all cytokines tested
[3] = tested on: IC-mediated vascular edema (Arthus reaction); test: Reverse Passive Arthus (RPA) reaction; format: in vivo, rat
Text: IC-mediated acute inflammatory tissue injury is implicated in a variety of human autoimmune diseases, including vasculitis, serum sickness, systemic lupus erythematosus, RA, and glomerulonephritis. The classical experimental model for IC-mediated tissue injury is the Reverse Passive Arthus (RPA) reaction. Intravenous injection of antigen (ovalbumin, OVA) following intradermal injection of antibodies specific to OVA (rabbit anti-OVA IgG) results in perivascular deposition of IC and a rapid inflammatory response characterized by edema, neutrophil infiltration, and hemorrhage at the injection sites (Szalai, et al., 2000, J. Immunol. 164(1):463-468).

[4] = tested on: collagen antibody-induced arthritis; test: Collagen antibody-induced arthritis (CAIA); format: in vivo, Balb/c mice
Text: This passive model differs from the traditional rodent collagen-induced arthritis (CIA) in that disease symptoms appear quickly (developing within 24-48 hrs after an IV-injection of antibodies), arthritis is inducible in both CIA-susceptible and CIA-resistant mouse strains, and it allows evaluation of inflammation that is independent of antibody production. CAIA was induced in Balb/c mice by intravenous injection of Arthrogen-CIA® Monoclonal Antibody Blend (Chemicon International, Inc., Temecula, Calif.) via the tail vein, followed 2 days later by an intraperitoneal injection of LPS. […] The severity of the arthritis in hind-paws was scored daily (scale of 0-4 per paw, sum of scores for both hind paws).

[5] = tested on: collagen-induced arthritis; test: Collagen-induced arthritis (CIA); format: in vivo, Syngeneic LOU rats
Text: One of the experimental models for IC-mediated tissue injury is the CIA in rodents (Kleinau et al., 2000, J. Exp. Med. 191:1611-1616). Injection of type II collagen (CII) into rodents produces an immune reaction that characteristically involves inflammatory destruction of cartilage and bone of the distal joints with concomitant swelling of surrounding tissues. CIA in rats is commonly used to evaluate compounds that might be of potential use as drugs for treatment of rheumatoid arthritis and other chronic inflammatory conditions and is induced in susceptible strains of either mice or rats by injection of CII in incomplete Freund's adjuvant (IFA). Administration of this emulsion gives rise to polyarthritis, characterized by synovial hyperplasia, infiltration of mononuclear cells, pannus formation, and destruction of cartilage and bone. […] Syngeneic LOU rats were immunized on Day 0 with native chicken CII/IFA. Oral treatment began at the onset of arthritis symptoms (Day 10). […] Hind limbs were scored daily for clinical arthritis severity using a standardized method based on the degree of joint inflammation. High resolution digital radiographs of hind limbs were obtained at the conclusion of the study (Day 28). These limbs were also analyzed for histopathologic changes. IgG antibodies to native CII were measured in quadruplicate by ELISA. […] Brahn. 2004). Blinded composite histopathologic studies confirmed the regression of pannus and erosions: […] Antibodies to native CII were not decreased in Compound 1-treated rats.

[6] = Safety pharmacology: cardiovascular study; format: in vivo; conditions: 50 mg/kg
Protocol: (§1) GLP toxicology studies included negative mutagenicity and clastogenicity studies (Ames, chromosomal aberration, and mouse micronucleus). […] The No Observed Adverse Effect Level (NOAEL) is 10-30 mg/kg/day for rats and 100 mg/kg/day for monkeys.

[7] = Safety pharmacology: CNS (Irwin) study; format: in vivo; conditions: 50 mg/kg
Protocol: as §1

[8] = GLP mutagenicity and clastogenicity studies (Ames, chromosomal aberration, mouse micronucleus)
Protocol: as §1

[9] = monkey, in vivo
Protocol: as §1

[10] = rat, in vivo
[11] = Stability under acidic and neutral conditions at 37° C.; format: physicochemical; conditions: FIG. 8
[12] = Conversion of prodrug to drug in microsome preparations; format: in vitro ADME, rat
Text: (§2) Although phosphate-containing prodrugs suitable for oral administration are of interest, skilled artisans will appreciate that prodrugs including phosphate-containing progroups R^p can be administered via other routes of administration, as phosphatases are distributed throughout the body. […] Thus, the only requirement is that the particular phosphate-containing progroup R^P selected should be removable under the conditions of intended use.

[13] = Stability / hydrolysis in rat plasma; format: in vitro ADME; conditions: FIG. 10
Text: as §2
The presence of Phosphatase activity in rat plasma was confirmed using p-nitrophenyl phosphate—a known substrate for phosphatase.

[14] = Pharmacokinetics after IV and oral dosing in rats; format: in vivo, Sprague-Dawley rats
Protocol: Prodrug Compound 4 was tested for oral bioavailability. For the study, the prodrug was dissolved in various vehicles (e.g. PEG 400 solution and CMC suspension) for intravenous and oral dosing in the rats. […] Following administration of the prodrug and/or drug, plasma samples were obtained and extracted. The plasma concentrations of the prodrug and/or drug were determined by high performance liquid chromatography/tandem mass spectrometry (LC/MS/MS) methods. Pharmacokinetic analyses were performed based on the plasma concentration data. The pharmacokinetic parameters of interest include Clearance (CL), Volume of distribution at steady-state (Vss), terminal half-life (t1/2), and oral bioavailability (% F).
Referring to FIG. 4, PK profiles are shown for IV and PO administration in Spraque-Dawley rats. For IV administration, Compound 4 was dissolved in PEG-400 and administered at a dose of 1 mg/kg.
FIG. 5 summarizes the PK parameters for the study described in FIG. 4.
FIG. 11 illustrates the absorption of prodrug Compound 4 from different vehicles.

[15] = water solubility, aqueous buffer under physiological conditions, read-out: Solubility

solubility ([1]; aqueous buffer, phosphate buffer at pH=7.5, data not shown, read-out: measured solubility): < 1 µg/mL | solubility [1, 15]: 1 to 2 µg/mL (≈ 2.13 to 4.25 µM) | EC50 [2]: ~43 nM | EC50 (LTC4): 39 nM | EC50 (cytokines): 158 to 462 nM | effect on hematology and bone marrow cellularity [9]: reversible effect | CD45RA+ cells (immunophenotyping) [10]: significant increase | Histopathology [10]: mild reductions in marrow cellularity | effect on hematology, liver transaminase (mild), spleen and thymus size, bone marrow cellularity [10]: reversible effect | humoral immunity, anti-KLH antibody assessment [10]: no evidence for untoward effects | percentage of CD3+ cells (immunophenotyping) [10]: significant decrease
Structure (SMILES): COc1cc(Nc2ncc(F)c(Nc3ccc4c(n3)NC(=O)C(C)(C)O4)n2)cc(OC)c1OC [Compound 1, N4-(2,2-dimethyl-3-oxo-4H-5-pyrido[1,4]oxazin-6-yl)-5-fluoro-N2-(3,4,5-trimethoxyphenyl)-2,4-pyrimidinediamine]
inhibition of ionomycin-induced degranulation (CHMCs): does not inhibit | inhibition at 10 mg/kg ([3]; Rattus norvegicus, 10 mg/kg oral, compared with vehicle control, read-out: inhibition of extravascular leakage of Evans blue dye (OD610) from tissue biopsies): 80% | cutaneous RPA reaction and inflammatory edema ([3]; single oral treatment one hour prior to antigen/antibody administration): reduced the cutaneous RPA reaction and inflammatory edema in a dose-dependent manner | arthritis severity, disease incidence, time of onset ([4]; lower dose levels, differences not significant (p>0.05)): trend toward reduced arthritis severity, disease incidence, and time of onset | clinical arthritis vs vehicle ([4]; oral, b.i.d., p<0.05): significantly reduced clinical arthritis | arthritis severity ([5]; 30 mg/kg q.d. p.o., evident within 7 days after initiation of therapy, p<0.05): significant reduction | Mean modified Mankin scores (histopathology, pannus and erosions) ([5]; 30 mg/kg, p<0.001 vs vehicle): 3.7±0.9 | clinical score ([5]; Day 28, 30 mg/kg q.d. p.o., p<0.001 vs vehicle): 2.54±0.98 | joint damage, blinded radiographs ([5]; Day 28, p<0.02 vs vehicle): 1.63±0.67 | cardiovascular effect [6]: slight reduction in heart rate and increase in RR interval | behavioral effect [7]: slight effect on a few behavioral parameters | mutagenicity and clastogenicity [8]: negative

Solubility of prodrug relative to active drug Compound 1 ([1]; same conditions, Compound 4 vs Compound 1): approximately 2000 times | solubility [1, 15]: > 5000 µg/mL | stability of prodrug [11]: stable | conversion of prodrug Compound 4 to drug Compound 1 ([12]; microsomal preparations obtained from Xenotech, FIG. 9): failed to convert | plasma levels of drug metabolite Compound 1 after dosing prodrug ([14]; Compound 4 given orally in PEG-400): high levels | AUC/dose of drug Compound 1 exposure (absorption), prodrug vs drug ([14]; oral, Compound 1 2.5 mg/kg in PEG-400 vs Compound 4 4 mg/kg in PEG-400, FIG. 6): nearly identical
Structure (SMILES): COc1cc(Nc2ncc(F)c(Nc3ccc4c(n3)N(COP(=O)(O)O)C(=O)C(C)(C)O4)n2)cc(OC)c1OC [Compound 4, N4-(2,2-dimethyl-4-[(dihydrogenphosphonoxy)methyl]-3-oxo-5-pyrido[1,4]oxazin-6-yl)-5-fluoro-N2-(3,4,5-trimethoxyphenyl)-2,4-pyrimidinediamine]
conversion of prodrug Compound 4 to drug Compound 1 ([12]; rat intestinal and hepatic microsomes from a different source (data not shown)): metabolize to the active drug Compound 1; also recorded: conversion of Compound 4 to Compound 1 was observed | stability in rat plasma, hydrolysis to drug Compound 1 [13]: metabolize to the active drug Compound 1; also recorded: unstable | disappearance / clearance of prodrug from plasma ([14]; IV, 1 mg/kg in PEG-400, 1 mg/kg): Rapid disappearance; also recorded: rapidly cleared | systemic presence of prodrug after oral dosing ([14]; given orally in PEG-400): no prodrug Compound 4 was present systemically | absorption from different vehicles ([14]; oral, rats, PEG-400 and carboxymethylcellulose solutions, powder in hard gelatin capsules, FIG. 11): absorbed equally well; also recorded: not dependent on formulation
